From patent publication EP0381656A1, “Alcohol-soluble/water-insoluble oil-containing antifreeze” (FIRST BRANDS CORPORATION, priority 1989, dated 1990)
Read-outs that look alike come from different tables or passages of the source.

Legend:
[1] = assay type: physicochemical
Procedure: The "alcohol-soluble/water-insoluble oil" (component (b)) is preferably characterized as having a minimum solubility in the selected alcohol of at least about 0.4 wt. % at 25°C at 1 atm pressure, preferably greater than 1.0 wt, % at 25°C at 1 atm pressure. The "alcohol-soluble/-water-insoluble oil" component is further characterized as being practically insoluble in a 50/50 (weight basis) mixture of the alcohol and water such that the alcohol-soluble/water-insoluble oil has a solubility in the alcohol/water mixture of less than about 0.25 wt. % at 25°C and a pressure of 1 atm, preferably less than about 0.05 at 25°C and a pressure of 1 atm. The solubility of the alcohol-soluble/water-insoluble oil in the alcohol or alcohol/water may be determined by equilibrating a concentration sequence of the oil in the alcohol under stirred conditions. After saturation for 2 hours at the specified temperature, any excess over saturation is estimated from the appearance of the solution. Insolubility is easily detected by visual observation. Formation of two distinctive phases or a turbid suspension indicates substantial insolubility. Turbidity and transmittance can be used to objectively determine if any insoluble material is present as a suspension. For example, when ethylene glycol (EG) or 1/1 mixture of EG/water are used for calibration, they both have a turbidity of 0.7 NTU (Nephelometric Turbidity Unit as measured with the HACH model 2100A turbidimeter) and 100% transmittance (or absorbance=0) measured with filtered light with 470nm wavelength using a Brinkmann PC/600 spectrophotometer. […] When 0.6% hexanol was added to the 1/1 EG/water solution, the turbidity […] to 1.9 NTU and the transmittance decreased to 98% (absorbance of 0.01). When 1% hexanol was added to 1/1 EG/water, the turbidity increased to 3 NTU and the transmittance decreased to 93% (absorbance of 0.03). […]

[2] = Contact angle of polypropylene glycol oil drop on surface-modified metal (Goniometer); assay type: physicochemical
[3] = as above; assay type: physicochemical; settings: 0.1 wt. percent surface modifier
From the text: The effectiveness of a surface modifier compound in modifying the metal surface to be treated with a alcohol-soluble/water-insoluble oil may be evaluated by first treating a metal surface with a selected surface modifier compound. A selected oil droplet is then placed on the modified metal surface and the contact angle measured using a Goniometer.
A series of contact angle measurements were made using for convenience, a polypropylene glycol having a molecular weight of about 1000 as the oil. The contact angle measurement is made by placing the drop of polypropylene glycol on an aluminum surface submerged in a solution having 0.1 wt. percent of a selected surface modifier compound in an aqueous working antifreeze solution having 67% weight percent water, a reserve alkalinity of 50, in borate buffered glycol and having a selected pH of approximately 8. The measured contact angles were as follows:
Several additional surface modifiers were evaluated according to the above procedure to determine their use in wetting the surface of one or more metals commonly employed in automotive cooling systems. The contact angles for aluminum (Al) cast iron (Fe), steel, brass, ASTM solder (ASTM), copper (Cu) and Modine solder (Modine) were measured according to the procedure of this Example 2 using the following surface modifiers: […]

| Molecule | turbidity ([1]; 0.6% in 1/1 EG/water) [NTU] | turbidity ([1]; 1% in 1/1 EG/water) [NTU] | turbidity and transmittance ([1]; below the solubility limit (5% in EG and 0.2% in 1/1 EG/water)) | CONTACT ANGLES (At 5 Minutes) Modine Solder ([2]; 0.05% surface modifier) [°] | CONTACT ANGLES (At 5 Minutes) Modine Solder ([2]; 0.02% surface modifier) [°] | CONTACT ANGLES (At 5 Minutes) Modine Solder ([2]; 0.1% surface modifier) [°] | CONTACT ANGLES (At 5 Minutes) ASTM Solder [3] [°] | CONTACT ANGLES (At 5 Minutes) Al [3] [°] | CONTACT ANGLES (At 5 Minutes) Brass [3] [°] | CONTACT ANGLES (At 5 Minutes) Cu [3] [°] | CONTACT ANGLES (At 5 Minutes) Fe [3] [°] | CONTACT ANGLES (At 5 Minutes) Steel [3] [°] |
| --- | --- | --- | --- | --- | --- | --- | --- | --- | --- | --- | --- | --- |
| CCCCCCO [hexanol] | 1.9 | 3 | stayed essentially the same as that of the solvent |  |  |  |  |  |  |  |  |  |
| CCCCCCCCCCCC(=O)O [lauric acid] |  |  |  | 117 |  |  |  |  |  |  |  |  |
| CCCCCCCC/C=C\CCCCCCCC(=O)O [oleic acid] |  |  |  | 52 | 68 | 51 |  |  |  |  |  |  |
| BUO(PO)₅C₃H₆5 Si (CH₃O)₃ [PO functional silane] |  |  |  |  |  | 138 | 138 | 139 | 63 | 27 | 90 | 65 |
| C₁₅hydroxyalkanesulfonate |  |  |  |  |  | 120 | 150 | 145 | 57 | 58 | 108 | 160 |
